Where no end group is shown, it is not given here.
What was measured:
coxsackievirus B5 (CVB5) = test: CVB5 infection inhibition on RD cells (cell viability); assay type: cell-based; conditions: for inhibition of CVB5 infection: 0.3, 0.9, or 1.5 μM peptide pre-incubated with virus, RD cell viability 24 h.p.i (S1F Fig); for inhibition of CVB5 infection, higher concentrations: 3, 6, or 12 μM peptide pre-incubated with virus, RD cell viability 24 h.p.i (S1H Fig)
Experimental: Synthetic peptides were purchased from Bioyears Co. Ltd. (Wuhan, China) with purity of more than 95% and dissolved in PBS. To test their inhibitory effects, the EV71 virus (MOI = 1) was incubated with the indicated amount of peptide at room temperature for 1 hr before the mixture was added to RD cells and maintained throughout the experiment. Cell viability, viral titer, or viral protein expression was determined 24 h.p.i. For the time-of-addition experiment, viruses were either pre-incubated with peptides (for the -2 and -1 time points), the mixture was added to the cells simultaneously (for 0 time point), or peptides were added after virus infection (for 1, 2, 4 and 7 h time points) and the virus/peptide was maintained in the culture before cell viability, viral titer, or viral protein expression was determined 24 h.p.i. The TCID50 of the virus was calculated according to the Reed-Muench method.
Cell viability assays were carried out using the Cell Titer-Glo Luminescent Cell Viability Assay Kit (Promega, Madison, WI) following the manufacturer’s instructions. Luminescence signals were measured using a BioTek Neo2 microplate reader.
(A-D) Cell viability of RD cells treated with the indicated amount of DL-37 (A), LL-37 (B), LL-18 (C), or FF-18 (D) was plotted against peptide concentration, and the cytotoxicity was determined. (E) EV71 virus pre-incubated with indicated amounts of DL-37, and the cell viability was determined 24 h.p.i. ***, P<0.001. (F-G) CVB5 (F) or Echo7 (G) virus pre-incubated with 0.3, 0.9, or 1.5 μM of peptides were used to infect RD cells. Cell viability was determined 24 h.p.i. ***, P<0.001. (H-I) CVB5 (H) or Echo7 (I) virus pre-incubated with 3, 6, or 12 μM of peptides were used to infect RD cells. Cell viability was determined 24 h.p.i. ***, P<0.001. (TIF) Click here for additional data file.

EV71 virus = test: Virus internalization assay (q-RT-PCR, immunoblotting); assay type: cell-based, enterovirus 71 (EV71); conditions: 1.5 μM peptide (q-RT-PCR, MOI = 1) or 3 μM (immunoblotting, MOI = 10); RD cells 4°C 1 hr then 37°C 1 hr
Experimental: Fig 3 LL-18 and FF-18 inhibit viral attachment and internalization. (A) EV71 virus (MOI = 1) was pre-incubated with 1.5 μM LL-18, FF-18 or 12 μM 12s before they were used to incubate with RD cells at 4°C for 1 hr. Viral RNA was then determined with q-RT-PCR. Values are normalized to vehicle treated cells. ***, P<0.001. (B) EV71 virus (MOI = 1) was pre-incubated with 1.5 μM LL-18, FF-18 or 12 μM 12s before they were used to incubate with RD cells at 4°C for 1 hr followed by 37°C incubation for 1 hr. Viral RNA was then determined with q-RT-PCR. Values are normalized to vehicle treated cells. ***, P<0.001. (C) Diagram of EV71 subgenomic replicon. […] (D) RD cells transfected with EV71 SGR RNA were treated with 1.5 μM LL-18 or FF-18 for 3 hrs (left panel) or 6 hrs (right panel) before luciferase activity was measured. ns, not significant.
Viral binding and internalization assays were performed as previously described. […] Cells were then washed extensively with ice-cold PBS, and the viruses retained were analyzed with real-time PCR. […]
Supplementary file ppat.1011967.s002.tif: S2 Fig LL-18 and FF-18 inhibit viral attachment and internalization. […] Cells were then washed extensively and kept cultured for 24 hrs before viral VP1 expression was determined with immunoblotting. […] Cells were then washed extensively and kept cultured for 24 hrs before viral VP1 expression was determined with immunoblotting. […]

Sequence | inhibition of CVB5 infection (coxsackievirus B5 (CVB5)) | inhibition of CVB5 infection, higher concentrations (coxsackievirus B5 (CVB5)) | inhibition of EV71 internalization (EV71 virus)
FRKSKEKIGKFFKRIVQRIFDFLRNLV [FF-18] | neither LL-18 nor FF-18 could inhibit CVB5 or Echo 7 infection | could still not inhibit CVB5 or Echo 7 infection | strong inhibition
FRKSKEKIGKLFKRIVQRILDFLRNLV [LL-18] | neither LL-18 nor FF-18 could inhibit CVB5 or Echo 7 infection | could still not inhibit CVB5 or Echo 7 infection | strong inhibition
